Data on three molecules can be found in patent US12325676B2, “Cationic lipid compound and composition for delivery of nucleic acids and use thereof” (Shenzhen Rhegen Biotechnology Co., Ltd., priority 2022, dated 2025).

A value given as a limit tells only on which side of the number the result lay.

Series [1] deals with BALB/c mice. Put plainly: In vivo expression of luciferase mRNA delivered by LNP, tail intravenous injection, small animal imaging. As to conditions: Table 3, 5 μg mRNA, female BALB/c mice, DLin-MC3-DMA = 100. The protocol: LUC-mRNA-lipid nanoparticles containing 5 μg mRNA (see SEQ ID NO: 1 in the Patent Application Publication CN114380724A for the corresponding nucleotide sequence of LUC-mRNA) were injected via tail intravenous injection in 6-8 week old female BALB/c mice, prepared as in Example 19. 100 μg of D-Luciferin Potassium Salt was injected via tail intravenous injection into the mice at specific time points and assayed using the PerkinElmer Small Animal Imaging System. Fluc is commonly used in mammalian cell cultures to measure gene expression and cell viability, and it emits biological fluorescent light in the presence of the substrate […]. The basic characteristics of the mRNA used include ARCA cap structure, polyA tail length of 120 nt, and complete substitution of pseudouridine.
The effect of delivering luciferase mRNA using more cationic lipids were validated according to the methods of Example 20 and Example 21.

The subject of another series is C57BL6 mice. Put plainly: Intratumoral injection of luciferase mRNA LNP, fluorescence of tumor and liver. The format is in vivo. As to conditions: luciferase mRNA LNP 25 μL/2.5 μg intratumoral, B 16F 10 tumor in C57BL6 mice, imaging after 24 h (FIGS. 6 and 7). The protocol:
Different types of lipid nanoparticles encapsulating luciferase mRNA in were prepared accordance with the preparation of Example 20. Tumors were injected subcutaneously in the right abdomen of 6-8 week female C57BL6 mice at 5×10^5 B 16F 10 cells (from CAS Cell Bank, CSTR:19375.09.3101MOUTCM36)/mouse, and tumor growth was observed and recorded periodically. On the 8th day after tumor inoculation, the length (L, mm) and width (D, mm) of the tumors were measured by using a vernier caliper, and the tumor volume (V) was calculated according to the formula V=(L×D^2)/2. Mice with tumor volume in the range of 80-120 mm^3 were taken and randomly grouped, and intratumorally injected with different types of lipid nanoparticles encapsulating luciferase mRNA at the volume of 25 μL/2.5 μg. Anatomical imaging was performed after 24 h to detect the fluorescence intensity of the mouse liver and tumor (as shown in FIGS. 6 and 7). […] This indicates better in situ tumor expression and lower liver […], which is suitable for encapsulation and delivery of some tumor therapy-related nucleic acid drugs.

Series [2] in a line: Particle size, PDI and zeta potential of mRNA-loaded lipid nanoparticles (Malvern Zetasizer nano). The format is physicochemical. Conditions: Table 4 batch; EPO mRNA LNP prepared as Example 20.
Series [3] can be described thus: Encapsulation rate of mRNA-loaded lipid nanoparticles (Ribogreen kit). The format is physicochemical. How it is done:
(§1) Luciferase mRNA was diluted in 10-100 mM citrate buffer at pH 4.0; the lipid components (cationic lipids shown in the present disclosure: DSPC:cholesterol:PEG lipids (DMG-PEG2000)) were dissolved in ethanol at a molar ratio of 50:10:38.5:1.5.
(§2) 3 mL of a mRNA buffer and 1 mL of a lipid solution were loaded into two 5 mL syringes respectively, and the syringes were installed on a microfluidic syringe pump. Chips were connected to the syringes and syringe pump flow rate was set. Clicking the start button of the syringe pump caused injection into the chip at a flow rate ratio of 3:1. Under observation of the color of the product at the exit of the chip, after discarding the first 5 milky white droplets (about 100 μL), the back-end sample was collected into an EP tube. The collected product was placed in a dialysis bag and dialyzed for 6 h (MWCO: 100 KDa) in 10 mM PBS (pH 7.4) intervals. Subsequently, after being concentrated by ultrafiltration to the desired concentration, the lipid nanoparticles were filtered through a 0.22 μm sterile filter and then stored at 4° C.
(§3) Tests were performed to calculate the encapsulation rate of the products according to the instructions of Ribogreen kit. Particle size and polydispersity index (PDI) detection as well as zeta potential analysis was performed on a Malvern Zetasizer nano instrument using standard assays.

In series [4] the test system is BALB/c mice. Kind of series: In vivo EPO protein expression after tail i.v. injection of EPO-mRNA LNP, serum ELISA. Conditions: 6 hours after tail i.v. injection of 20 μg EPO-mRNA-lipid nanoparticles, female Balb/c mice. How it is done:
In the example, the effects of in vivo transfection of erythropoietin (EPO) by various cationic liposomes were compared. Nanoparticles were prepared in the same manner as in Example 20, and the nucleotide sequence corresponding to the EPO mRNA used is given in CN114380724B, SEQ ID NO:2. After preparation, 20 μg of EPO-mRNA-lipid nanoparticles were injected via tail intravenous injection in 6-8 week female Balb/c mice. 6 hours later the mice were subjected to blood sampling from the eye frame. After centrifugation to separate the serum, EPO protein expression was determined using ELISA. The basic characteristics of the mRNA used include ARCA cap structure, polyA tail length of 100-120 nt, and complete substitution of pseudouridine.
(An ELISA detects its analyte on a solid surface through an enzyme-linked reagent.)

A short description of series [5]: Particle size, PDI and zeta potential of mRNA-loaded lipid nanoparticles (Malvern Zetasizer nano). The format is physicochemical. The protocol: as §1, §2, §3
Series [6] in a line: Encapsulation rate of mRNA-loaded lipid nanoparticles (Ribogreen kit). The format is physicochemical. Conditions: Table 4 batch; EPO mRNA LNP prepared as Example 20.
Series [7] relates to BALB/c mice. Put plainly: In vivo expression of luciferase mRNA delivered by LNP, lung nebulization. As to conditions: LUC-mRNA LNP, 5 μg mRNA, compared with Lipid M and SM-102. The protocol: LUC-mRNA-lipid nanoparticles containing 5 μg mRNA were administrated via lung nebulization in 6-8 week old BALB/c mice, prepared as in Example 19. 100 μg of D-Luciferin Potassium Salt was injected via tail intravenous injection into the mice at specific time points and assayed using the PerkinElmer Small Animal Imaging System.

For a further series, the system named is SD rats. Put plainly: Abnormal toxicity of cationic lipid nanoparticles, tail i.v. injection, liver and kidney function. The format is in vivo. As to conditions: EPO mRNA LNP, 5 mg/kg tail intravenous injection, female SD rats. The protocol:
The nanoparticles prepared in Example 27 were used in this experiment. The nanoparticles were injected via tail intravenous injection at a dose of 5 mg/kg in female SD rats weighing 200-250 g. The […] in the control group were injected with a corresponding volume of normal saline. […] Blood samples were collected at 120 h after injection, and alanine transaminase (ALT), aspartate aminotransferase (AST), urea nitrogen (BUN), and serum creatinine (SCR) were measured using a fully automated biochemistry instrument as the evaluation indexes of hepatic and renal functions.

Setting [8] is: Table 3 batch, luciferase mRNA LNP prepared as Example 20.
[9] abbreviates: Table 1, Luciferase mRNA LNP, cationic lipid:DSPC:cholesterol:DMG-PEG2000 50:10:38.5:1.5 molar.

`CCCCCCCCC(CCCCCCCC)OC(=O)CCCCCCCN(CCO)CCCCCCCOC(=O)C(C)CSCCCCCC` (centres unmarked) [Compound 51]: in the series on BALB/c mice [1], the “relative fluorescence intensity (%)” value is on record as 734 ± 51%. For the same molecule, in the series with C57BL6 mice, the “brightness (fluorescence intensity) at the tumor” value was “higher brightness at the tumor” and the “brightness (fluorescence intensity) in the liver” value is given as “lower brightness in the liver”. For the same molecule, in series [2], the PDI is 0.14 and the “Particle size (nm)” value amounted to 75.3 nm. In addition, the “Encapsulation rate (%)” value in series [3] (setting [8]) amounted to 98.0%. Further, in the series with BALB/c mice [4], the “EPO concentration” value worked out at 6.68e+07 pg/mL. In addition, in [5] (setting [8]), the PDI was determined as 0.11 and the “Particle size (nm)” value was determined as 91.0 nm. Further, the “Encapsulation rate (%)” value in [6] amounted to 95.0%.
For the molecule `CCCCCCCCOCC(C)C(=O)OCCCCCN(CCO)CCCCCCCC(=O)OC(CCCCCCCC)CCCCCCCC` (centres unmarked) [Compound 7], in the series on BALB/c mice [1], the “relative fluorescence intensity (%)” value came out at 754 ± 32%. The PDI is given as 0.09 in series [2], 0.17 in series [5] (setting [9]) and 0.15 in series [5] (setting [8]). Moreover, the “Particle size (nm)” value is listed as 88.8 nm in [2], 78.9 nm in [5] (setting [9]) and 82.9 nm in series [5] (setting [8]). Further, the “Encapsulation rate (%)” value in series [3] (setting [9]) turned out to be 96.1%; in [3] (setting [8]) it was 96.8%; in [6], 97.8%. The “fluorescent levels of mRNA expression (FIG. 2)” value in the series on BALB/c mice [7] is “superior to Lipid M and SM-102”. Besides, in the series with BALB/c mice [4], the “EPO concentration” value was found to be 4.21e+07 pg/mL. Also, in series [5] (setting [9]), the “Zeta potential (mV)” value is −3.77 mV.
Take `CCCCC/C=C\C/C=C\CCCCCCCCC(CCCCCCCC/C=C\C/C=C\CCCCC)OC(=O)CCCN(C)C` [DLin-MC3-DMA, reference compound]: the “relative fluorescence intensity (%)” value with BALB/c mice [1] turned out to be 100%. In the series with SD rats, the “death after injection (time)” value is on record as at most 18 h. The PDI in series [2] came out at 0.19; in series [5] (setting [9]), 0.19; in [5] (setting [8]), 0.16. In addition, the “Particle size (nm)” value was 97.6 nm in series [2], 102.3 nm in [5] (setting [9]) and 101.5 nm in series [5] (setting [8]). The “Encapsulation rate (%)” value in series [3] (setting [9]) came out at 87.6%; in series [6], 90.1%. Besides, the “EPO concentration” value in the series with BALB/c mice [4] was 4.37e+06 pg/mL. Further, the “Zeta potential (mV)” value in [5] (setting [9]) is reported as −0.03 mV.
